Reference: DBAASP
In brackets after ≈: the same amount, converted by molar mass. Several values for one entry are separate records, joined by “and”; a condition that tells them apart may be missing. Equal values may be shown once.

How the values were obtained:
Assay in all cases: ≥ marks a high value that may be exact or a test limit, other limits are often not marked, values filed in µg/mL are converted to µM
Escherichia coli = system: Escherichia coli
[1] = system: Klebsiella pneumoniae ATCC 13883
[2] = system: Enterococcus faecalis ATCC 29212
[3] = system: Staphylococcus aureus ATCC 25923
[4] = system: Pseudomonas aeruginosa ATCC 27853
[5] = system: Salmonella enterica subsp. enterica serovar Typhimurium ATCC 14028
[6] = system: Streptococcus pyogenes ATCC 19615
Bacillus subtilis = system: Bacillus subtilis
[7] = system: Staphylococcus aureus USA 300
Escherichia coli K-12 = system: Escherichia coli K-12
Streptococcus mutans = system: Streptococcus mutans
[8] = system: Staphylococcus aureus NCTC 8325
[9] = system: Escherichia coli ATCC 25922
[10] = system: Candida albicans ATCC 90028
[11] = system: Micrococcus luteus ATCC 9341
Micrococcus luteus = system: Micrococcus luteus

CC(C)[C@H](NC(=O)CNC(=O)[C@H](CCCN=C(N)N)NC(=O)[C@H](Cc1cnc[nH]1)NC(=O)[C@H](Cc1c[nH]c2ccccc12)NC(=O)[C@H](Cc1ccccc1)NC(=O)[C@H](Cc1cnc[nH]1)NC(=O)[C@H](Cc1ccc(O)cc1)NC(=O)[C@@H](N)Cc1ccc(O)cc1)C(=O)N[C@H](C(=O)N[C@@H](CCCCN)C(=O)N[C@@H](CCCN=C(N)N)C(=O)O)[C@@H](C)O [YYHFWHRGVTKR]
MIC (Escherichia coli): 40 µM (≈ 66 µg/mL)
MIC [1]: ≥ 40 µM
MIC [2]: 30 µM (≈ 49.5 µg/mL)
MIC [3]: 30 µM (≈ 49.5 µg/mL)
MIC [4]: 40 µM (≈ 66 µg/mL)
MIC [5]: 40 µM (≈ 66 µg/mL)
MIC [6]: ≥ 70 µM
MIC (Bacillus subtilis): ≥ 40 µM

CC[C@H](C)[C@H](NC(=O)[C@H](C)NC(=O)[C@H](CCCCN)NC(=O)[C@H](Cc1ccccc1)NC(=O)CN)C(=O)N[C@H](C(=O)N[C@@H](CCC(N)=O)C(=O)N[C@@H](CCCN=C(N)N)C(=O)N[C@H](C(=O)N[C@@H](CCCCN)C(=O)N[C@@H](CC(=O)O)C(=O)N[C@@H](Cc1ccccc1)C(=O)N[C@@H](CC(C)C)C(=O)N[C@@H](CCCN=C(N)N)C(=O)N[C@@H](CC(N)=O)C(=O)N[C@@H](CC(C)C)C(=O)N[C@H](C(N)=O)C(C)C)[C@@H](C)CC)C(C)C [GFKAIVQRIKDFLRNLV]
MIC [7]: 7.5 µM and 3.1 µM
MIC (Escherichia coli K-12): 15 µM (≈ 30.2 µg/mL)

CC[C@H](C)[C@H](NC(=O)CNC(=O)CNC(=O)CNC(=O)[C@H](Cc1ccccc1)NC(=O)[C@H](Cc1c[nH]c2ccccc12)NC(=O)[C@H](CCCN=C(N)N)NC(=O)[C@H](Cc1c[nH]c2ccccc12)NC(=O)[C@H](CCCN=C(N)N)NC(=O)[C@H](Cc1c[nH]c2ccccc12)NC(=O)[C@@H](N)CCCN=C(N)N)C(=O)N[C@@H](CCCCN)C(=O)N[C@@H](CCC(N)=O)C(=O)N[C@@H](CC(C)C)C(=O)N[C@@H](CC(C)C)C(=O)N[C@@H](Cc1cnc[nH]1)C(=O)N[C@@H](Cc1ccccc1)C(=O)N[C@@H](Cc1ccccc1)C(=O)N[C@@H](CCC(N)=O)C(=O)N[C@@H](Cc1c[nH]c2ccccc12)C(=O)N[C@@H](CCCN=C(N)N)C(=O)N[C@@H](Cc1ccccc1)C(N)=O [RWRWRWFGGGIKQLLHFFQWRF]
MIC (Streptococcus mutans): 3.76 µM (≈ 11.3 µg/mL)

CSCC[C@H](NC(=O)CNC(=O)CNC(=O)[C@H](CCCCN)NC(=O)[C@H](C)NC(=O)[C@H](Cc1ccccc1)NC(=O)[C@H](CCCCN)NC(=O)[C@H](CCCCN)NC(=O)[C@H](CC(C)C)NC(=O)[C@H](C)NC(=O)[C@H](CC(=O)O)NC(=O)[C@H](CC(C)C)NC(=O)[C@H](Cc1ccccc1)NC(=O)[C@@H](NC(=O)CN)C(C)C)C(=O)N[C@@H](CC(N)=O)C(=O)N[C@@H](C)C(=O)N[C@H](C(=O)N[C@@H](CC(C)C)C(=O)N[C@@H](CC(N)=O)C(=O)N1CCC[C@H]1C(=O)N[C@@H](CCCCN)C(=O)O)C(C)C [GVFLDALKKFAKGGMNAVLNPK]
MIC [8]: ≥ 100 µM
MIC [9]: 18 µM (≈ 41.7 µg/mL)
MIC [10]: ≥ 100 µM

CC[C@H](C)[C@H](NC(=O)[C@H](CCCCN)NC(=O)[C@H](CCSC)NC(=O)[C@H](CC(C)C)NC(=O)CNC(=O)CNC(=O)[C@H](CC(C)C)NC(=O)[C@@H](N)Cc1ccccc1)C(=O)N[C@H](C(=O)N1CCC[C@H]1C(=O)N[C@@H](C)C(=O)N[C@@H](C)C(=O)N[C@@H](Cc1ccccc1)C(=O)N[C@H]1CSSC[C@@H](C(=O)O)NC(=O)[C@H](CCCCN)NC(=O)[C@H](CCCCN)NC(=O)[C@H]([C@@H](C)O)NC(=O)[C@H](C(C)C)NC(=O)[C@H](C)NC1=O)[C@@H](C)CC [FLGGLMKIIPAAFCAVTKKC]
MIC [8]: 18 µM (≈ 38 µg/mL)
MIC [9]: 9 µM (≈ 19 µg/mL)
MIC [10]: ≥ 70 µM

CC[C@H](C)[C@H](N)C(=O)N[C@@H](CC(C)C)C(=O)N1CCC[C@H]1C(=O)N[C@@H](Cc1c[nH]c2ccccc12)C(=O)N[C@@H](CCCCN)C(=O)N[C@@H](Cc1c[nH]c2ccccc12)C(=O)N1CCC[C@H]1C(=O)N[C@@H](Cc1c[nH]c2ccccc12)C(=O)N[C@@H](Cc1c[nH]c2ccccc12)C(=O)N1CCC[C@H]1C(N)=O [ILPWKWPWWP]
MIC [11]: 1.6 µM (≈ 2.25 µg/mL)

CC[C@H](C)[C@H](NC(=O)[C@H](CCC(N)=O)NC(=O)[C@H](CC(N)=O)NC(=O)[C@H](Cc1ccccc1)NC(=O)[C@@H](NC(=O)[C@H](CCC(N)=O)NC(=O)[C@H](CC(C)C)NC(=O)[C@H](CC(C)C)NC(=O)[C@@H](N)CCCCN)[C@@H](C)O)C(=O)N[C@@H](Cc1ccccc1)C(=O)N[C@@H](CCCN=C(N)N)C(=O)O [KLLQTFNQIFR]
MIC (Streptococcus mutans): ≥ 88.8 µM

CC[C@H](C)[C@H](NC(=O)[C@H](CCCCN)NC(=O)[C@H](C)NC(=O)[C@H](CC(C)C)NC(=O)[C@H](CC(=O)O)NC(=O)[C@@H](NC(=O)[C@H](C)N)C(C)C)C(=O)N[C@@H](C)C(=O)N[C@@H](CC(N)=O)C(=O)N[C@@H](CCCCN)C(=O)N[C@H](C(=O)N[C@@H](CC(C)C)C(=O)N[C@@H](CO)C(=O)N[C@@H](CO)C(=O)N[C@@H](CC(C)C)C(=O)N[C@@H](Cc1ccccc1)C(N)=O)C(C)C [AVDLAKIANKVLSSLF]
MIC [8]: ≥ 150 µM
MIC [9]: 37.5 µM (≈ 63.3 µg/mL)

NC(=O)[C@H](Cc1ccccc1)NC(=O)[C@H](CCCN=C(N)N)NC(=O)[C@H](CCCN=C(N)N)NC(=O)[C@H](Cc1c[nH]c2ccccc12)NC(=O)[C@H](Cc1c[nH]c2ccccc12)NC(=O)[C@H](CCCN=C(N)N)NC(=O)[C@@H](N)CCCN=C(N)N [RRWWRRF]
MIC (Streptococcus mutans): 14.6 µM (≈ 17 µg/mL)

CC[C@H](C)[C@H](NC(=O)[C@H](CO)NC(=O)[C@H](CO)NC(=O)[C@@H](NC(=O)[C@H](CC(C)C)NC(=O)CN)C(C)C)C(=O)NCC(=O)N[C@@H](CCCN=C(N)N)C(=O)N[C@@H](C)C(=O)N[C@@H](CC(C)C)C(=O)NCC(=O)NCC(=O)N[C@@H](CC(C)C)C(=O)N[C@@H](CC(C)C)C(=O)N[C@@H](C)C(=O)N[C@@H](CC(=O)O)C(=O)N[C@H](C(=O)N[C@H](C(=O)N[C@@H](CCCCN)C(=O)N[C@@H](CO)C(=O)N[C@@H](CCCCN)C(=O)N[C@@H](CCC(=O)O)C(=O)N[C@@H](CCC(N)=O)C(=O)N1CCC[C@H]1C(=O)N[C@@H](C)C(=O)O)C(C)C)C(C)C [GLVSSIGRALGGLLADVVKSKEQPA]
MIC (Micrococcus luteus): 20.3 µM (≈ 50 µg/mL)

CC[C@H](C)[C@H](N)C(=O)N[C@@H](CC(C)C)C(=O)N1CCC[C@H]1C(=O)N[C@@H](Cc1c[nH]c2ccccc12)C(=O)N[C@@H](CCCCN)C(=O)N[C@@H](Cc1c[nH]c2ccccc12)C(=O)N1CCC[C@H]1C(=O)N[C@@H](Cc1c[nH]c2ccccc12)C(N)=O [ILPWKWPW]
MIC [11]: 6.3 µM (≈ 7.08 µg/mL)

CC[C@H](C)[C@H](NC(=O)[C@H](CCCCN)NC(=O)[C@H](CC(C)C)NC(=O)[C@H](CC(C)C)NC(=O)[C@@H]1CCCN1C(=O)CNC(=O)[C@H](CC(C)C)NC(=O)[C@H](CC(C)C)NC(=O)CN)C(=O)N[C@@H](C)C(=O)N[C@@H](C)C(=O)N[C@@H](CCCCN)C(=O)N[C@H](C(=O)NCC(=O)N[C@@H](CO)C(=O)N[C@@H](CC(N)=O)C(=O)N[C@@H](CC(C)C)C(=O)N[C@@H](CC(C)C)C(=O)O)C(C)C [GLLGPLLKIAAKVGSNLL]
MIC [8]: ≥ 130 µM
MIC [9]: 60 µM (≈ 107 µg/mL)
MIC [10]: ≥ 200 µM

CC[C@H](C)[C@H](NC(=O)[C@@H](N)CCCN=C(N)N)C(=O)N[C@@H](CC(C)C)C(=O)N[C@@H](CCCCN)C(=O)N[C@@H](CCC(=O)O)C(=O)N[C@@H](CC(C)C)C(=O)N[C@@H](CCCCN)C(=O)N[C@@H](CC(N)=O)C(=O)N[C@@H](CC(C)C)C(=O)N[C@@H](Cc1ccccc1)C(=O)N[C@@H](CCCCN)C(=O)O [RILKELKNLFK]
MIC (Streptococcus mutans): ≥ 178 µM
